Laboratory results taken from patent US20260137706A1, “METHODS OF TREATING INFLAMMATORY DISEASES” (INTERLINE THERAPEUTICS, INC., priority 2023, published 2026).
pIC50: −log10 of the molar value.

Tests used:
[1] = biological target: T1, binding of His-XIAP(BIR2)-avi fusion protein to GST-RIPK2 fusion protein (RIPK2/XIAP) (Homo sapiens, UniProt O43353); experiment: RIPK2-XIAP binding competition PPI assay (TR-FRET); settings: RIPK2/XIAP binding competition PPI assay; for Emax: Amax, read-out: PPI Amax bin; for pIC50: read-out: PPI IC50 bin
T1 construct: made in house; host or cells: baculovirus infected Sf9 cells
Description: The ability of selected compounds of Formula (I) to inhibit the binding of an His-XIAP(BIR2)-avi fusion protein to a GST-RIPK2 fusion protein was quantified employing the TR-FRET-based competition assay as described in the following paragraphs.
Recombinant fusion protein of N-terminal Glutathione-S-Transferase (GST) and a fragment of human RIPK2 (amino acids 1-310 of accession number 043353), expressed in baculovirus infected Sf9 cells, purified via glutathione affinity chromatography, was used as GST-RIPK2 fusion protein. Recombinant fusion protein of N-terminal 6×Histidine (His), a fragment of human XIAP (amino acids 152-231 of accession number P98170), and C-terminal avi tag, expressed in baculovirus infected Sf9 cells, purified via Nickel NTA affinity chromatography, was used as the His-XIAP(BIR2)-avi fusion protein.
For the assay, a working solution of 1 nM GST-RIPK2, 25 nM His-XIAP(BIR2)-avi, 6 nM Anti-His-XL665 […] (Revvity Catalogue No. 61HISXLB), and 0.5 nM Anti-GST-Tb (Revvity Catalogue No. 61GSTTLB) in 25 mM Tris-HCl 7.5, 0.5 mM ethylene glycol-bis(2-aminoethylether)-N,N,N′,N′-tetraacetic acid (EGTA), 10 mM magnesium chloride (MgCl2), 2.5 mM dithiothreitol (DTT), 0.01% (w/v) bovine serum albumin (BSA), 0.005% (w/v) Pluronic F-127 (Sigma), 0.5 mM sodium ortho-vanadate, 5 mM β-Glycerophosphate disodium salt hydrate (BGP) was prepared. 50 nL of a 100-fold concentrated solution of each test compound in DMSO was dispensed via acoustic dispensing into a white low volume 384-well microtiter plate (Perkin Elmer Catalogue No. 6008280). Subsequently, 5 μL of the assay working solution were added.
The resulting mixture was incubated 120 min at 23° C. Subsequently, the amount of complex formed by the GST-RIPK2, XIAP(BIR2)-avi, Anti-His-XL665, and Anti-GST-Tb was evaluated by measurement of the resonance energy transfer from the Tb-cryptate to the XL665. Therefore, the fluorescence emissions at 520 nm and 665 nm after excitation at 337 nm were measured in a TR-FRET reader, e.g. a Pherastar FS (BMG Labtechnologies, Offenburg, Germany) or an Envision (PerkinElmer). The ratio of the emissions at 665 nm and at 520 nm was taken as the measure of the amount of the complex. The data were normalized (assay reaction without inhibitor=0% activity, 50 nM of GSK583=−100% activity).
For the RIPK2/XIAP binding competition PPI assay Amax values, “A” denotes an Amax of ≥80%; “B” denotes an Amax of 80%>B≥55; “C” denotes an Amax of 55%>C>30; and “D” denotes an Amax of ≤30%.

[2] = system: NF-κB pathway (SEAP) in THP1-Dual cells; experiment: THP-1 Dual cell SEAP assay (L18-MDP stimulated); format: cell-based; settings: Homo sapiens, THP1-Dual, read-out: NF-κB THP1 IC50 bin
Experimental: THP1-Dual™ cells (InvivoGen Cat #thpd-nfis) allow simultaneous assessment of the NF-κB pathway, by monitoring the activity of secreted embryonic alkaline phosphatase (SEAP) as well as the IRF pathway, by assessing the activity of a secreted luciferase (Lucia). Cells were cultured according to manufacturers' recommendations. For the assay, cell concentration was adjusted to 7.14×10^5 cells/mL in assay media (RPMI 1640, 2 mM L-Glutamine, 25 mM HEPES, 10% fetal bovine serum (heat-inactivated for 30 min at 56° C.), Pen-Strep (100 U/mL)) and 35 µL of cell suspension (˜25,000 cells) per well were added to a flat bottom 384-well plate (white opaque). Plate was centrifuged at 300 g for 2 min, compounds were added in serial dilution series according to the plate layout (volumes ˜500 nL-0.0152 nL) and plate was incubated at 37° C. in 5% CO2 for 30 min. Using assay media, a L18-MDP stock solution, that results in a final concentration of 10 ng/mL L18-MDP in each well when adding 15 μL to each well, was prepared. 15 μL of L18-MDP stock solution was added to each well, while 15 μL of assay media was added to the negative control wells. Plates were subsequently incubated at 37° C. in 5% CO2 overnight (20-24 h).
For the SEAP assay: without disturbing the cells at the bottom of the well, 15 μL supernatant was transferred to a clear 384-well flat bottom plate and 35 μL QUANTI-Blue Solution per well was added. Following a 2 h incubation at 37° C., the optical density (OD) was measured at 620-655 nm using a microplate reader (PheraStar FS microplate reader with protocol for OD 620-655 nm).
Values of media-only wells were subtracted and % inhibition for each compound concentration relative to the DMSO/L18-MDP-treated controls was calculated. Inhibition values+/−SD were fitted by non-linear regression using Prism software (GraphPad PRISM Software) to calculate IC50 values.

T1 sequence (O43353 1-310 limits assumed): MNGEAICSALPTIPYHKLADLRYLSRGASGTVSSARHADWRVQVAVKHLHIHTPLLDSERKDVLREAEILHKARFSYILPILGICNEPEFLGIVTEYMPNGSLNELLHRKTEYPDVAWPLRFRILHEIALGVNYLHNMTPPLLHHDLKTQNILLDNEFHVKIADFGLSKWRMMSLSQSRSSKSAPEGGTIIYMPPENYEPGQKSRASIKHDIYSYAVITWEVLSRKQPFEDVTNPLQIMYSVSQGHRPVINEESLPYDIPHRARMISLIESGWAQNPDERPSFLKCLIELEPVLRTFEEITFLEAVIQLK

Compound	Emax [1]	pIC50 [1]	pIC50 [2]
COc1cc2ncc(-c3cc(NS(=O)(=O)c4cnn(C)c4)c(OC)c(OC)c3)n2cc1N1CC2(COC2)CC1=O [Example 271, N-(2,3-dimethoxy-5-(7-methoxy-6-(7-oxo-2-oxa-6-azaspiro[3.4]octan-6-yl)imidazo[1,2-a]pyridin-3-yl)phenyl)-1-methyl-1H-pyrazole-4-sulfonamide]	> 80%	7.70 to 8.60	< 6.00
CC(C)(C)S(=O)(=O)c1cn2c(-c3cc(F)c(N)nc3F)cnc2cc1NCCO [Example 272, 2-((3-(6-amino-2,5-difluoropyridin-3-yl)-6-(tert-butylsulfonyl)imidazo [1,2-a]pyridin-7-yl)amino)ethan-1-ol]	> 80%	8.60 to 9.00	6.60 to 7.30
COc1cc2ncc(-c3cc(NS(=O)(=O)c4cnn(C)c4)c(OC)c(OC)c3)n2cc1N1CCCC1=O [Example 273, N-(2,3-dimethoxy-5-(7-methoxy-6-(2-oxopyrrolidin-1-yl)imidazo[1,2-a]pyridin-3-yl)phenyl)-1-methyl-1H-pyrazole-4-sulfonamide]	> 80%	8.60 to 9.00	6.00 to 6.60
COc1ccc(-c2cnc3cc(OC)c(S(=O)(=O)C(C)(C)C)cn23)cc1NS(=O)(=O)c1cnn(C)c1 [Example 282, N-(5-(6-(tert-butylsulfonyl)-7-methoxyimidazo[1,2-a]pyridin-3-yl)-2-methoxyphenyl)-1-methyl-1H-pyrazole-4-sulfonamide]	> 80%	> 9.00	> 7.30
COc1cc2ncc(-c3cc(Cl)c(OC)c(NS(=O)(=O)c4cnn(C)c4)c3)n2cc1S(=O)(=O)C(C)(C)C [Example 283, N-(5-(6-(tert-butylsulfonyl)-7-methoxyimidazo[1,2-a]pyridin-3-yl)-3-chloro-2-methoxyphenyl)-1-methyl-1H-pyrazole-4-sulfonamide]	> 80%	> 9.00	> 7.30
COc1cc2ncc(-c3cc(F)cc(NS(=O)(=O)c4cnn(C)c4)c3)n2cc1S(=O)(=O)C(C)(C)C [Example 284, N-(3-(6-(tert-butylsulfonyl)-7-methoxyimidazo[1,2-a]pyridin-3-yl)-5-fluorophenyl)-1-methyl-1H-pyrazole-4-sulfonamide]	> 80%	> 9.00	6.60 to 7.30
COc1cc(NS(=O)(=O)c2cnn(C)c2)cc(-c2cnc3cc(OC)c(S(=O)(=O)C(C)(C)C)cn23)c1 [Example 285, N-(3-(6-(tert-butylsulfonyl)-7-methoxyimidazo[1,2-a]pyridin-3-yl)-5-methoxyphenyl)-1-methyl-1H-pyrazole-4-sulfonamide]	> 80%	> 9.00	> 7.30
COc1cc2ncc(-c3cc(C)c(OC)c(NS(=O)(=O)c4cnn(C)c4)c3)n2cc1S(=O)(=O)C(C)(C)C [Example 286, N-(5-(6-(tert-butylsulfonyl)-7-methoxyimidazo[1,2-a]pyridin-3-yl)-2-methoxy-3-methylphenyl)-1-methyl-1H-pyrazole-4-sulfonamide]	> 80%	> 9.00	6.60 to 7.30
COc1cc2ncc(-c3cc(F)c(OC)c(NS(=O)(=O)c4cnc(C)s4)c3)n2cc1S(=O)(=O)C(C)(C)C [Example 287, N-(5-(6-(tert-butylsulfonyl)-7-methoxyimidazo[1,2-a]pyridin-3-yl)-3-fluoro-2-methoxyphenyl)-2-methylthiazole-5-sulfonamide]	55 to 80%	> 9.00	6.60 to 7.30
COc1cc2ncc(-c3cc(F)c(OC)c(NS(=O)(=O)c4cc(C)no4)c3)n2cc1S(=O)(=O)C(C)(C)C [Example 288, N-(5-(6-(tert-butylsulfonyl)-7-methoxyimidazo[1,2-a]pyridin-3-yl)-3-fluoro-2-methoxyphenyl)-3-methylisoxazole-5-sulfonamide]	< 30%	< 7.70	< 6.00
